The text below walks through data of patent US20110009379A1, “INDOLINONE COMPOUND” (ASTELLAS PHARMA INC., priority 2008, published 2011).

One data set deals with T1, human TRPA1 (Homo sapiens, UniProt O75762, K186N/R3C/R58T).
T1 construct: expressed in transfected cells; pcDNA3.1(+) vector)
The data set can be described thus: Measurement of TRPA1 activation activity (intracellular calcium, FLIPR, HEK293 cells stably expressing human TRPA1). Format: cell-based. Particulars: change of intracellular calcium concentration. Here is the method: 10 ng of Human brain mRNA (Clontech Co.) was treated with DNase, and then was reverse transcribed using kit for reverse transcription-polymerase chain reaction (RT-PCR) (SUPERSCRIPT First-Strand Synthesis System for RT-PCR; Invitrogen Co.) to synthesize the first strand cDNA. PCR using a hot start method was performed using the first strand cDNA as a template and Taq DNA polymerase (LA Taq DNA polymerase; TAKARA SHUZO). The PCR was performed using oligonucleotides consisting of the nucleotide sequences, represented by sequence number 2 as a sense primer and sequence number 3 as an antisense primer, in which firstly, heat denaturation was performed at 98° C. (1 minute), and then a cycle of 98° C. (15 seconds)/56° C. (30 seconds)/72° C. (5 minutes) was repeated 35 times. As a result, a DNA fragment of about 3.3 kbp was amplified.
The DNA fragment was cloned to pCR-TOPO vector using a cloning kit (TOPO XL PCR Cloning Kit; Invitrogen). The obtained plasmid DNA was digested with restriction enzymes KpnI and HindIII, and then was cloned using plasmid pcDNA 3.1(+)(Invitrogen). In this connection, the plasmid pcDNA 3.1(+) has a promoter sequence derived from cytemegalovirus, and can be used in order to express a protein in animal cells.
The nucleotide sequences of the obtained clones were analyzed using DNA sequencer (ABI3700 DNA Sequencer; Applied Biosystems) by dideoxyterminator method, and the nucleotide sequence represented by sequence number 1 was obtained. Furthermore, when these sequences were translated to amino acid sequences, the amino acid sequence represented by sequence number 1 was obtained.
After constructing the expression vector of the human TRPA1 gene, selection by G418 was performed from the HEK293 cells which temporarily expressed TRPA1 by transfection operation to obtain cells stably expressing TRPA1. The above operation was performed according to known methods (experimental medicine supplementary volume, “Cultivation Cell Experimental Methods for Molecular Biology Study” published by Toshio Kuroki, Namho Hue and Kazuhiro Chida, 1995, Yodosha).
In order to measure the change of the intracellular calcium concentration in the cells stably expressing the human TRPA1, the change of the intracellular calcium concentration when a compound to be tested was added was measured using FLIPR (Molecular Device).
In order to measure the change of the intracellular calcium concentration with FLIPR, the following pretreatment was performed. First of all, assay buffer was prepared which was for adding fluorescent pigment Fluo4-AM (DOJIN) to the cells or washing the cells just before performing FLIPR assay. To a solution (hereinafter, HBSS/HEPES solution) where 20 mL of 1M HEPES (pH 7.4; Invitrogen) was added to 1000 mL of a physiological saline buffer (Hank's Balanced Salt Solution; HBSS) (Invitrogen), was added 10 mL of a solution where 710 mg of probenecid (Sigma) was dissolved into 5 mL of 1M aqueous NaOH solution and 5 mL of HBSS/HEPES solution was further added and mixed, and the assay buffer was thus prepared. Then, 50 μg of Fluo4-AM was dissolved into 22 μL of DMSO (DOJIN), the same amount of 20% pluronic acid (Molecular Probes) was added thereto and mixed, and the mixture was added to the 10.6 mL of the assay buffer where 105 μL of fetal bovine serum was added, to prepare a fluorescent pigment solution. The medium of the cells stably expressing TRPA1 was removed, 100 μL per well of the fluorescent pigment solution was dispensed immediately, followed by cultivation in a CO2 cultivator for 1 hour, and the fluorescent pigment was soaked in the cells. The cells after cultivation were washed using the assay buffer, followed by being set in FLIPR. Furthermore, a test sample, which was added to the cells stably expressing TRPA1, was prepared by using the assay buffer, and at the same time, was set in FLIPR. […]
Background: Calcium assays in cells follow changes in intracellular calcium, usually with a dye or a luminescent sensor.

The subject of data set [1] is delay of discharging time induced by loperamide in mice. The data set can be described thus: Loperamide induced constipation model (glass bead discharging time). Format: in vivo. As to conditions: Mus musculus, read-out: ED50 (amount which suppresses 50% of the delay of discharging time induced by loperamide). Here is the method: It has been known that loperamide as a μ opioid receptor agonist causes convulsive contraction in intestinal tracts. Thus, a delay in the intestinal transport ability due to loperamide is thought as a constipation IBS model.
Mice (Slc:ddY, five-week old, male) fasted from the previous evening of the experiment. On the day of the experiment, the mice were acclimatized to cages for measurement for 1 hour or more, and 0.3 mg/kg of loperamide was administered subcutaneously. After 30 minutes, a compound to be tested was administered orally, ether anesthesia was applied to the mice immediately thereafter, glass beads having diameter of 3 mm were inserted to 2 cm from anus. The mice were returned to the cages for measurement, and the time from waking to discharging of the glass beads was measured. Furthermore, the compound to be tested was dissolved into 10% DMSO, 10% cremophor, and 80% distillated water.
As a result, it has been recognized that there was a delay in the beads discharging time of the loperamide administration group (vehicle group) in comparison with the loperamide non-administration group (control group).
ED50 values (amount of the compound to be tested which suppresses 50% of the delay of discharging time induced by loperamide) of some of the compounds of the formula (I) are shown in Table 3. In this connection, comparative compound 1 is the same compound as comparative compound 1 in Test Example 4.

Another data set concerns the target Cytochrome P450(2D6) (Homo sapiens, UniProt P10635). The data set can be described thus: Cytochrome P450(2D6) enzyme inhibition test. It is filed as in vitro ADME. Particulars: CYP2D6, fluorescent substrate 1.5 μmol/L, 37° C., 20 minutes. Here is the method: The experiment was performed in accordance with the method of Crespi et al. (Analytical Biochemistry, 248, 188-190, 1997).
As a substrate, 3-[2-(N,N-diethyl-N-methylamino)ethyl]-7-methoxy-4-methyl coumarine (1.5 μmol/L) a compound to be tested (3.1×10^−7 to 2×10^−5 M) and an enzyme (2.5×10^−8 M) were incubated at 37° C. for 20 minutes in total of […] of 100 mM phosphorous buffer (pH=7.4) including 8.2 mM NADP+, 0.41 mM glucose-6-phosphate, 0.41 mM MgCl2 and 0.4 Units/mL glucose-6-phosphate dehydrogenase, using 96 well plates. Then, 0.5 M aqueous 2-amino-2-hydroxymethyl-1,3-propandiol solution containing 80% acetonitrile was added to stop the reaction, fluorescence intensity (excitation wavelength; 390 nm, fluorescent wavelength; 460 nm) was measured with a fluorescent plate reader. An inhibition ratio was calculated with the following formula, and the test compound concentration when the inhibition ratio is 50% (IC50) was obtained.
C1: fluorescence intensity in the presence of the test compound and enzyme at know concentrations, and the substrate
C0: fluorescence intensity in the presence of the enzyme and substrate, without the test compound
B1: fluorescence intensity of blank well

Another data set has as its system gastric emptying of rats. As to the kind of experiment: Activity to gastric emptying of TRPA1 agonist (phenol red, rats). Particulars: Rattus norvegicus, read-out: ED50 (amount which suppresses 50% of gastric emptying). It is filed as in vivo. The source says: When EC cell is stimulated by content of a gastrointestinal tract, 5-HT is secreted. The secreted 5-HT promotes the secretion or motility through a 5-HT receptor present in intestinal nerve plexus or gastrointestinal smooth muscle. The secreted 5-HT is instantly taken into a cell by its specific transporter, and is metabolized by […]. Thus, while it is considerably difficult to directly measure the secreted 5-HT concentration, it has been known that gastric emptying is delayed as a physiological activity through 5-HT in rodents. In order to verify in vivo activity through 5-HT of the compound to be tested, activity to gastric emptying of rats by various TRPA1 agonists was studied.
In the experiment, male wistar rats (body weight 290 to 360 g) were used. The animals were purchased from Japan SLC (Shizuoka). The animals were allowed to drink water freely under a constitutive environment.
5 minutes after the medicine was orally administered, 0.05% phenol red solution (1.5 mL) was orally administered. After 15 minutes, rats were put painlessly to death by cervical vertebral dislocation, their stomachs were exenterated, and phenol red was eluted with 0.1M aqueous NaOH solution (5 mL) from the exenterated stomachs. 20% aqueous trichloroacetic acid solution (0.1 mL) was added to the NaOH solution (0.5 mL), followed by stirring and centrifugation at 15,000 rpm, at 4° C., for 10 minutes. 0.5M aqueous NaOH solution (0.2 mL) was added to the supernatant (0.05 mL), followed by stirring, and absorbance at 560 nm was measured using an absorption spectrometer (spectrometer spectramax M2; Molecular Devices, CA, USA).
A gastric emptying was calculated by the following calculating formula.
Gastric emptying (%)=100−(A/B)×100
A: amount of phenol red remaining in stomach
B: amount of phenol red remaining in stomach just after administering phenol red
ED50 values (amount of the compound to be tested which suppresses 50% of gastric emptying, with respect to the control animals without administering the compound to be tested) of some of the compounds of the formula (I) are shown in Table 2. In this connection, comparative compound 1 and comparative compound 2 are (3E)-1-methyl-3-(2-oxopropyridene)-1,3-dihydro-2H-indol-2-one, and (3E)-3-(2-oxopropyridene)-1-prop-2-in-1-yl-1,3-dihydro-2H-indol-2-one described in Non Patent Document 4 above, and has the following chemical structures, respectively.

In another data set the test system is RIN14B cells. As to the kind of experiment: Measurement of 5-HT secretion from RIN14B. It is filed as cell-based. As to conditions: 20 minutes at 37° C., relative to 300 μM allyl isothiocyanate = 100%, HBSS only = 0%. Here is the method:
In order to investigate whether TRPA1 is related to 5-HT release, 5-HT secretion promotion from RIN14B by a compound to be tested was measured.
The RIN14B cells cultivated in a petri dish were scraped using Phosphate buffered saline (PBS) containing 1 mM EDTA, distributed into 24 well plates, and cultivated for 2 days. As a medium, a medium in which 10% fetal bovine serum (ICN), 100 U/mL penicillin, and 100 μg/mL streptomycin was added to RPMI1640 (Invitrogen), was used. The cells were washed once with HBSS (Invitrogen) and added with 0.1% BSA and 10 μM fluoxetine (TOCRIS Co.), followed by dilution with the above HBSS, the prepared compound to be tested was added to RIN14B cells, followed by cultivation at 37° C., under 5% CO2 condition for 20 minutes. After cultivation, supernatant of cells was recovered, followed by freeze preservation. The content of 5-HT in the supernatant was measured by a commercial serotonin immunoassay kit (Beckman). 5-HT release promotion activation value (%) was evaluated as a relative value when the 5-HT release promotion value by 300 μM of allyl isothiocyanate was defined as 100%, and the 5-HT release promotion value by HBSS for dilution only was defined as 0%.

The mark [2] stands for this setting: mice (Slc:ddY, male), 0.3 mg/kg loperamide subcutaneously, compound orally.
[3] abbreviates: male wistar rats, oral administration, versus control animals.

Where two headings read alike, the source gives them in different places. Some results are limits rather than exact numbers.

T1 sequence (O75762 whole entry R3C/R58T/K186N): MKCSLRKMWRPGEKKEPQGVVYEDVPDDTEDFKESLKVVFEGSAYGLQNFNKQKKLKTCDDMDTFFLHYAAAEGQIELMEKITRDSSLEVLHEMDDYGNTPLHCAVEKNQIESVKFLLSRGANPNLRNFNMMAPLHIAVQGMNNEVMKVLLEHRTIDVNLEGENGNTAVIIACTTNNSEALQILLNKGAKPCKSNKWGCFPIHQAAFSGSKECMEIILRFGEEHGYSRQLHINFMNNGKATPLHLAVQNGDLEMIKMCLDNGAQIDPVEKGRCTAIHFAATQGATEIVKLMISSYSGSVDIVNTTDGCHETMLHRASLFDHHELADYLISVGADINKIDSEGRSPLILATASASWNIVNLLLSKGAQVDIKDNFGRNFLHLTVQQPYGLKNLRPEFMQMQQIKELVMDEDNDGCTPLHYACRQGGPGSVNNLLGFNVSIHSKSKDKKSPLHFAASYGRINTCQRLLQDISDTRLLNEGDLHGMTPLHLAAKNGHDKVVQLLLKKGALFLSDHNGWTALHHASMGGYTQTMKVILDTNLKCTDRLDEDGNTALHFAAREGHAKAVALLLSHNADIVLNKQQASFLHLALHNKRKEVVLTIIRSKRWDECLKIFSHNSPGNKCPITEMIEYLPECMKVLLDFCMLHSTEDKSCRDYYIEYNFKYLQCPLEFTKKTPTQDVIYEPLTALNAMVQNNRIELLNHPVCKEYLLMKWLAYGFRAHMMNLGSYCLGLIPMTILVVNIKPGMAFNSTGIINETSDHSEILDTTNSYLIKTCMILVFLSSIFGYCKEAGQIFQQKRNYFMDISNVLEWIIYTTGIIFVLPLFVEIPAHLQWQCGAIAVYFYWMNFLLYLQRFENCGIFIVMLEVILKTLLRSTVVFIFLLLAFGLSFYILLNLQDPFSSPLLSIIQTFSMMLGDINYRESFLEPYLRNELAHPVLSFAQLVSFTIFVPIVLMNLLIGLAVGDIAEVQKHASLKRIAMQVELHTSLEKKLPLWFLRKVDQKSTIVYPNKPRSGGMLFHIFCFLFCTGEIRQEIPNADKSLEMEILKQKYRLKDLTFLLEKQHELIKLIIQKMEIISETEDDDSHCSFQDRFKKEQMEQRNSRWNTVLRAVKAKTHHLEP
Chain of Cytochrome P450(2D6) (P10635 whole entry): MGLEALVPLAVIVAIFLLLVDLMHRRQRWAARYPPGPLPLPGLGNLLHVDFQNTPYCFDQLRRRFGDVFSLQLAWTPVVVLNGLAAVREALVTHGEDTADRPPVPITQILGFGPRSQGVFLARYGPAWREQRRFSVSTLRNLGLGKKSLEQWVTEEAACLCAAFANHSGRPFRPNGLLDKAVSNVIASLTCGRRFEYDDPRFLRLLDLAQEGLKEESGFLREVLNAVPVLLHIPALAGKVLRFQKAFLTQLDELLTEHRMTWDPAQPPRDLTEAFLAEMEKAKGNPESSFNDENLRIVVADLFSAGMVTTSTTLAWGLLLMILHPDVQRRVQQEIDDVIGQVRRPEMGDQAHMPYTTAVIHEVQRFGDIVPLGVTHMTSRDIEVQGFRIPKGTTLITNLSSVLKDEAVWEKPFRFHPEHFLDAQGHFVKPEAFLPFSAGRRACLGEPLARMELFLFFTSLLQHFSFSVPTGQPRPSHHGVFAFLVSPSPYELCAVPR

Consider `CC(C)CN1C(=O)/C(=C/C(=O)O)c2cccc(Cl)c21` [Example 31, (2E)-(7-chloro-1-isobutyl-2-oxo-1,2-dihydro-3H-indol-3-ylidene)acetic acid], for which the melting point (as a rule, the temperature, or range, at which the solid turns liquid) fell in the range of 142 to 144 °C. For the same compound, the EC50 (commonly the concentration needed to bring the measured effect to its halfway point) at human TRPA1 came to 0.61 µM. For the same compound, the ED50 (usually the midpoint of the dose-response relation) in data set [1] (setting [2]) stood at 0.24 mg/kg.

In the case of `CC(C)CN1C(=O)/C(=C/C(=O)O)c2cccc(F)c21` [Example 1, (2E)-(7-fluoro-1-isobutyl-2-oxo-1,2-dihydro-3H-indol-3-ylidene)acetic acid], at Cytochrome P450(2D6), the IC50 (in general, the midpoint of a concentration-inhibition curve) was over 20 µM. In addition, at human TRPA1, the EC50 came out at 4.27 µM. Moreover, the ED50 with gastric emptying of rats (setting [3]) came to 0.13 mg/kg.

In the case of `CC(C)CN1C(=O)/C(=C/C(=O)O)c2ccccc21` [Example 13], the figures for the ED50 (in the data set on gastric emptying of rats (setting [3]); in data set [1] (setting [2])) were 0.98 mg/kg and 0.4 mg/kg, respectively.

Consider `COC(=O)c1cccc(CN2C(=O)/C(=C/C(N)=O)c3ccccc32)c1` [Example 4, methyl 3-{[(3E)-3-(2-amino-2-oxoethylidene)-2-oxo-2,3-dihydro-1H-indol-1-yl]methyl}benzoate], for which, on human TRPA1, the EC50 stood at 1.2 µM. The “5-HT release promotion activation value” in the data set on RIN14B cells was 144.6%.

For the compound `CCC(CC)CN1C(=O)/C(=C/C(=O)N2CCOCC2)c2cccc(F)c21` [Example 45, (3E)-1-(2-ethylbutyl)-7-fluoro-3-(2-morpholin-4-yl-2-oxoethylidene)-1,3-dihydro-2H-indol-2-one], the melting point lay in the range of 102 to 104 °C. Also, on Cytochrome P450(2D6), it took 18 µM to reach half-maximal inhibition (IC50). Further, the EC50 at human TRPA1 worked out at 1.29 µM. The ED50 in the data set with gastric emptying of rats (po) came out at 0.57 mg/kg.

Turning to `O=C(O)/C=C1/C(=O)N(CC2CCC2)c2c(F)cccc21` [Example 32, (2E)-[1-(cyclobutylmethyl)-7-fluoro-2-oxo-1,2-dihydro-3H-indol-3-ylidene]acetic acid], the melting point lay within 166 to 168 °C. Also, the IC50 on Cytochrome P450(2D6) was over 50 µM. On human TRPA1, the 50% effective concentration (EC50) worked out at 1.16 µM. For the same compound, the ED50 with gastric emptying of rats (setting [3]) is 0.21 mg/kg.

Regarding `CC(=O)/C=C1/C(=O)N(C)c2ccccc21` [comparative compound 1, (3E)-1-methyl-3-(2-oxopropyridene)-1,3-dihydro-2H-indol-2-one, reference compound], the 50% effective dose (ED50) with gastric emptying of rats (setting [3]) worked out at 2.8 mg/kg; in data set [1] (setting [2]), 2.5 mg/kg.

In the case of `CC(C)CN1C(=O)/C(=C/C(=O)O)c2cc(F)ccc21` [Example 27], the EC50 on human TRPA1 came out at 4.63 µM. Further, the “5-HT release promotion activation value” with RIN14B cells was 40.0%.

For `O=C(O)/C=C1/C(=O)N(Cc2ccccc2)c2ccc(F)cc21` [Example 17, (2E)-(1-benzyl-5-fluoro-2-oxo-1,2-dihydro-3H-indol-3-ylidene)acetic acid], the melting point was in the range of 177 to 179 °C. The compound further returned an IC50 against Cytochrome P450(2D6) of over 20 µM. For the same compound, on human TRPA1, the EC50 was found to be 4.45 µM. For the same compound, the ED50 in the data set with gastric emptying of rats (setting [3]) amounted to 0.31 mg/kg.

`O=C(O)/C=C1/C(=O)N(CC2CCC2)c2ccccc21` [Example 24]: the ED50 came to 0.53 mg/kg in the data set on gastric emptying of rats (po) and 0.27 mg/kg in data set [1].
